What was measured:
E-selectin = E-selectin expression in primary HUVEC (FACS); assay type: cell-based, human; details: for TNFα-induced expression of E-selectin: peptide 100 μM 2 h, TNFα 10 ng/ml 6 h
Method: (A) Primary HUVEC were pre-incubated for two hours with wild-typo (middle) or mutant (bottom) NBD peptides (100 μM) then stimulated with TNFα (10 ng/ml) for a further six hours. Control cells received no peptide. Cells were stained with either anti-E-selectin (H4/18) or a non-binding control antibody (K16/16) and expression was measured FACS (FACSort, Becton Dickinson). The profiles show E-selectin staining in the absence (shaded) and presence (solid line) of TNFα and control antibody staining under the sane conditions (dashed line, no TNFα; dotted line, TNFα). (B) % control release of NO2— in various samples. (C) PMA-induced ear edema in mice topically treated with either vehicle (VEH), dexamethasone (DEX) or NBD peptides was induced and measured as described in Example 8. Data are presented as mean differences in ear thickness ±SD (*=p<0.05 compared with both untreated control and vehicle). (D) The effects of the NBD peptide compared with the effect of dexamethasone (DEX) on Zymosan (ZYM)-induced peritonitis in mice were determined as described again in Example 8. Control mice were injected with phosphate-buffered saline (PBS).
Many proteins involved in the initiation and maintenance of inflammatory responses require NF-κB activation for induced expression of their genes (Ghosh et al., (1998) Annu. Rev. Immunol. 16, 225-260; May & Ghosh, (1998) Immunol. Today 19, 80-88). One such protein, E-selectin, is a leukocyte adhesion molecule expressed on the luminal surface of vascular endothelial cells after activation by pro-inflammatory stimuli such as IL-1 or TNFα (Pober et al., (1986) J. Immunol. […], 1680-1687; Bevilacqua et al., (1987) Proc. Natl. Acad. Sci. USA 84, 9238-9242; Collins et al., (1995) FASEB J. 9, 899-909). Expression of E-selectin and other NF-κB-dependent adhesion molecules is crucial for the arrest and recruitment of leukocytes into sites of acute and chronic inflammation. […]

[1] = test system: mice (zymosan-induced peritonitis); assay: Zymosan-induced peritonitis in mice; assay type: in vivo, mice (C57BL/6NCR); details: for PMN accumulation / exudate formation: NBD peptides 200 mg/ml i.p. with zymosan
Method: In a second model, peritonitis was induced in mice by intraperitoneal (i.p.) injection of zymosan either alone or in combination with dexamethasone or the NBD peptides. For zymosan-induced peritonitis, measurement of peritoneal exudates and inflammatory cell collections from replicate groups of age and sex matched mice (C57BL/6NCR) were performed as previously described (Getting et al., (1998) Immunology 95, 625-630). Groups of animals were injected concomitantly with one ml zymosan (1 mg/ml) and either dexamethasone (100 mg/ml) or the NBD peptides (200 mg/ml). The concentration of NOX (nitrate plus nitrite) present in the inflammatory exudates was measured using a colorimetric assay kit (Alexis Corporation) according to the manufacturers protocol.

[2] = test system: mice (PMA-induced ear edema); assay: PMA-induced ear edema in mice; assay type: in vivo; details: topical 200 μg/ear
Method: The NBD peptide was tested for its ability to inhibit inflammatory responses in animals using two distinct models of acute inflammation. In the first model, ear edema was induced in mice using phorbol-12-myristate-13-acetate (PMA) and the effects of topical administration of the NBD peptides were measured. Ear edema using PMA was induced in replicate groups of age and sex matched mice as previously described (Chang et al., (1987) Eur. J. Pharmacol. 142, 197-205). Twenty μl of either NBD peptides (200 μg/ear), dexamethasone (40 μg/ear) or vehicle (DMSO:Ethanol; 25:75 v/v) was applied topically to the right ear of mice thirty minutes before and thirty minutes after the application of 20 μl of PMA (5 μg/ear) dissolved in ethanol. Ear swelling was measured six hours after PMA application using a microgauge and expressed as the mean difference in thickness between the treated (right) and untreated (left) ears. Statistical analysis of the data was performed using the students t-test. A value of p<0.05 was considered statistically significant.

[3] = NBD peptide 200 mg/ml i.p. with zymosan

Substance | E-selectin expression in the absence of TNFα (E-selectin; peptide 100 μM) | TNFα-induced expression of E-selectin (E-selectin) | reduction of NOX in peritoneal exudates [1, 3] [%] | PMN accumulation [1] | exudate formation [1] | inhibition of PMA-induced ear thickening ([2]; 30 min before and after PMA 5 μg/ear, 6 h) [%] | effect on NOX in peritoneal exudates [1, 3] | effect on PMA-induced ear thickening ([2]; p=0.09)
[DRQIKIWFQNRRMKWKK]TALDWSWLQTE (DRQIKIWFQNRRMKWKKTALDWSWLQTE; Description of Unknown: Unknown wildtype NBD peptide) [wild-type NBD peptide] | induced low level expression | significantly reduced | 66±4 | significantly reduced | significantly reduced | 77±3 |  | 
[DRQIKIWFQNRRMKWKK]TALDASALQTE (DRQIKIWFQNRRMKWKKTALDASALQTE; Description of Artificial Sequence: Synthetic Mutant NBD peptide) [identical to wild-type NBD peptide except W739 and W741 mutated to alanine, reference compound] |  | not |  | no effect | no effect |  | no effect | insignificant

Source: patent US8242240B2, “Anti-inflammatory compounds and uses thereof” (Yale University, priority 2000, dated 2012)
